Patent US20260070945A1, “MACROCYCLIC IMMUNOMODULATORS” (Bristol-Myers Squibb Company, priority 2022, published 2026)
Where a SMILES comes first, the peptide text is derived from it. Bridges are numbered along the chain shown (N, C = ends). [ ]: non-standard residue; d: D form. The star is where a group is joined. ξ: configuration not given here. Phe(3-CF3) = N[C@@H](Cc1cccc(C(F)(F)F)c1)C(=O)O; Phe(4-CF3) = N[C@@H](Cc1ccc(C(F)(F)F)cc1)C(=O)O; Phe(4-COOH) = N[C@@H](Cc1ccc(C(=O)O)cc1)C(=O)O; Bip = N[C@@H](Cc1ccc(-c2ccccc2)cc1)C(=O)O; NH(CH2)14COOH = O=C(O)CCCCCCCCCCCCCCN*; Phe(3-Me) = Cc1cccc(C[C@H](N)C(=O)O)c1; NH(CH2)12COOH = O=C(O)CCCCCCCCCCCCN*; Val(3-OH) = CC(C)(O)[C@H](N)C(=O)O; Cha = N[C@@H](CC1CCCCC1)C(=O)O; Cit = NC(=O)NCCC[C@H](N)C(=O)O; Thr(3ξ) = CC(O)[C@H](N)C(=O)O; Carboxymethyl = O=C(O)C*; NMeA = CN[C@@H](C)C(=O)O; Dab = NCC[C@H](N)C(=O)O; AEEA = NCCOCCOCC(=O)O; CF3 = FC(F)(F)*

The compounds below were run against T1, PD-1/PD-L1 interaction (PE-labeled human PD-L1-Ig binding to Jurkat cell line over-expressing human PD-1) (Homo sapiens, UniProt Q15116) (assay: Jurkat-PD-1 Cell Binding High-Content Screening Assay (CBA)). Conditions: PE-labeled PD-L1-Ig 20 nM final, Jurkat-hPD-1 cells; read-out: Jurkat HPD1 PDL1 IC50.
T1 construct: expressed in transfected cells; host or cells: Jurkat
T1 sequence (Q15116 25-288): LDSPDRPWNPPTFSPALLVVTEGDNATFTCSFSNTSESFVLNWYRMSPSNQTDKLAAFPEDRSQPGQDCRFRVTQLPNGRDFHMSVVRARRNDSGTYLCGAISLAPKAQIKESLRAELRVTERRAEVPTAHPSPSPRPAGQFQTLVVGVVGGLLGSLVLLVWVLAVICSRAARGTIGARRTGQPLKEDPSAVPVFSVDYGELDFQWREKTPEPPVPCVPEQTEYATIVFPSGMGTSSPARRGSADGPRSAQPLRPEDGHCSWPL
How it was run: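 Compound is added first to the PD-1-expressing Jurkat cells and held 2 h at 37 °C in serum-containing DMEM. The fluorescent PD-L1 fusion follows at 20 nM final for 1 h. Fixed, Hoechst-stained cells are then imaged for bound label.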
An IC50 of 64.1 nM was found for `CC(C)C[C@H]1NC(=O)[C@H](C)N(C)C(=O)[C@H](Cc2ccc(C(=O)O)cc2)NC(=O)[C@H](Cc2ccc(-c3ccccc3)cc2)NC(=O)[C@H](Cc2ccc(C(=O)O)cc2)NC(=O)[C@H](Cc2cccc(C(F)(F)F)c2)NC(=O)[C@H](CC(=O)O)NC(=O)[C@H](Cc2ccc(C(=O)O)cc2)NC(=O)[C@H](C(C)O)NC(=O)CSC[C@@H](C(=O)N[C@@H](CCN)C(=O)NCCOCCOCC(=O)NCCOCCOCC(=O)NCCCCCCCCCCCCC(=O)O)NC(=O)[C@H](CC(=O)O)NC(=O)[C@H](C(C)C)NC(=O)[C@H](CC2CCCCC2)NC(=O)[C@H](CCN)NC1=O` (stereo partly drawn) [Example 2615] ({CH2CO}-[Thr(3ξ)][Phe(4-COOH)]D[Phe(3-CF3)][Phe(4-COOH)][Bip][Phe(4-COOH)][NMeA][dL][Dab][Cha]VDC[Dab][AEEA][AEEA]-{NH(CH2)12COOH}; thioether N-14) in this work.
An IC50 of 427 nM was found for `CC(C)C[C@H]1NC(=O)[C@H](C)N(C)C(=O)[C@H](Cc2ccc(C(=O)O)cc2)NC(=O)[C@H](Cc2ccc(-c3ccccc3)cc2)NC(=O)[C@H](Cc2ccc(C(=O)O)cc2)NC(=O)[C@H](Cc2cccc(C(F)(F)F)c2)NC(=O)[C@H](CC(=O)O)NC(=O)[C@H](Cc2ccc(C(=O)O)cc2)NC(=O)[C@H](C(C)O)NC(=O)CSC[C@@H](C(=O)N[C@@H](CCN)C(=O)NCCOCCOCC(=O)NCCOCCOCC(=O)NCCCCCCCCCCCCCCC(=O)O)NC(=O)[C@H](CC(=O)O)NC(=O)[C@H](C(C)C)NC(=O)[C@H](CC2CCCCC2)NC(=O)[C@H](CCN)NC1=O` (stereo partly drawn) [Example 2616] ({CH2CO}-[Thr(3ξ)][Phe(4-COOH)]D[Phe(3-CF3)][Phe(4-COOH)][Bip][Phe(4-COOH)][NMeA][dL][Dab][Cha]VDC[Dab][AEEA][AEEA]-{NH(CH2)14COOH}; thioether N-14) in this work.
An IC50 of 20.1 nM was found for `CC(=O)NCCCC[C@@H]1NC(=O)[C@H](C(C)(C)O)NC(=O)[C@H](CC2CCCCC2)NC(=O)[C@H](CCN)NC(=O)[C@@H](CC(C)C)NC(=O)[C@H](C)N(C)C(=O)[C@H](CCC(N)=O)NC(=O)[C@H](Cc2ccc(-c3ccccc3)cc2)NC(=O)[C@H](Cc2ccc(C(=O)O)cc2)NC(=O)[C@H](Cc2cccc(C(F)(F)F)c2)NC(=O)[C@H](CC(=O)O)NC(=O)[C@H](Cc2ccc(OCC(=O)O)cc2)NC(=O)[C@H](Cc2ccc(OCC(=O)O)cc2)NC(=O)CSC[C@@H](C(=O)N[C@@H](CCN)C(=O)NCCOCCOCC(=O)NCCCCCCCCCCCCC(=O)O)NC1=O` [Example 2617] ({CH2CO}-Y(Carboxymethyl)Y(Carboxymethyl)D[Phe(3-CF3)][Phe(4-COOH)][Bip]Q[NMeA][dL][Dab][Cha][Val(3-OH)]K(Ac)C[Dab][AEEA]-{NH(CH2)12COOH}; thioether N-14) in this work.
An IC50 of 210 nM was found for `CC(=O)NCCCC[C@@H]1NC(=O)[C@H](C(C)(C)O)NC(=O)[C@H](CC2CCCCC2)NC(=O)[C@H](CCN)NC(=O)[C@@H](CC(C)C)NC(=O)[C@H](C)N(C)C(=O)[C@H](CCC(N)=O)NC(=O)[C@H](Cc2ccc(-c3ccccc3)cc2)NC(=O)[C@H](Cc2ccc(C(F)(F)F)cc2)NC(=O)[C@H](Cc2cccc(C)c2)NC(=O)[C@H](CC(=O)O)NC(=O)[C@H](Cc2ccc(OCC(=O)O)cc2)NC(=O)[C@H](Cc2ccc(OCC(=O)O)cc2)NC(=O)CSC[C@@H](C(=O)N[C@@H](CCN)C(=O)NCCCCCCCCCCCCCCC(=O)O)NC1=O` [Example 2618] ({CH2CO}-Y(Carboxymethyl)Y(Carboxymethyl)D[Phe(3-Me)][Phe(4-CF3)][Bip]Q[NMeA][dL][Dab][Cha][Val(3-OH)]K(Ac)C[Dab]-{NH(CH2)14COOH}; thioether N-14) in this work.
An IC50 of 43.9 nM was found for `CC(=O)NCCCC[C@@H]1NC(=O)[C@H](C(C)(C)O)NC(=O)[C@H](CC2CCCCC2)NC(=O)[C@H](CCN)NC(=O)[C@@H](CC(C)C)NC(=O)[C@H](C)N(C)C(=O)[C@H](CCC(N)=O)NC(=O)[C@H](Cc2ccc(-c3ccccc3)cc2)NC(=O)[C@H](Cc2ccc(C(=O)O)cc2)NC(=O)[C@H](Cc2cccc(C)c2)NC(=O)[C@H](CC(=O)O)NC(=O)[C@H](Cc2ccc(OCC(=O)O)cc2)NC(=O)[C@H](Cc2ccc(C(F)(F)F)cc2)NC(=O)CSC[C@@H](C(=O)N[C@@H](CCN)C(=O)NCCCCCCCCCCCCC(=O)O)NC1=O` [Example 2619] ({CH2CO}-[Phe(4-CF3)]Y(Carboxymethyl)D[Phe(3-Me)][Phe(4-COOH)][Bip]Q[NMeA][dL][Dab][Cha][Val(3-OH)]K(Ac)C[Dab]-{NH(CH2)12COOH}; thioether N-14) in this work.
An IC50 of 72 nM was found for `CC(=O)NCCCC[C@@H]1NC(=O)[C@H](C(C)(C)O)NC(=O)[C@H](CC2CCCCC2)NC(=O)[C@H](CCN)NC(=O)[C@@H](CC(C)C)NC(=O)[C@H](C)N(C)C(=O)[C@H](CCC(N)=O)NC(=O)[C@H](Cc2ccc(-c3ccccc3)cc2)NC(=O)[C@H](Cc2ccc(C(=O)O)cc2)NC(=O)[C@H](Cc2cccc(C)c2)NC(=O)[C@H](CC(=O)O)NC(=O)[C@H](Cc2ccc(OCC(=O)O)cc2)NC(=O)[C@H](Cc2ccc(OC(F)(F)F)cc2)NC(=O)CSC[C@@H](C(=O)N[C@@H](CCN)C(=O)NCCCCCCCCCCCCC(=O)O)NC1=O` [Example 2620] ({CH2CO}-Y(CF3)Y(Carboxymethyl)D[Phe(3-Me)][Phe(4-COOH)][Bip]Q[NMeA][dL][Dab][Cha][Val(3-OH)]K(Ac)C[Dab]-{NH(CH2)12COOH}; thioether N-14) in this work.
An IC50 of 22.4 nM was found for `CC(=O)NCCCC[C@@H]1NC(=O)[C@H](C(C)(C)O)NC(=O)[C@H](CC2CCCCC2)NC(=O)[C@H](CCN)NC(=O)[C@@H](CC(C)C)NC(=O)[C@H](C)N(C)C(=O)[C@H](CCC(N)=O)NC(=O)[C@H](Cc2ccc(-c3ccccc3)cc2)NC(=O)[C@H](Cc2ccc(C(F)(F)F)cc2)NC(=O)[C@H](Cc2cccc(C)c2)NC(=O)[C@H](CC(=O)O)NC(=O)[C@H](Cc2ccc(OCC(=O)O)cc2)NC(=O)[C@H](Cc2ccc(OCC(=O)O)cc2)NC(=O)CSC[C@@H](C(=O)N[C@@H](CCN)C(=O)NCCCCCCCCCCCCC(=O)O)NC1=O` [Example 2621] ({CH2CO}-Y(Carboxymethyl)Y(Carboxymethyl)D[Phe(3-Me)][Phe(4-CF3)][Bip]Q[NMeA][dL][Dab][Cha][Val(3-OH)]K(Ac)C[Dab]-{NH(CH2)12COOH}; thioether N-14) in this work.
An IC50 of 83.9 nM was found for `CC(=O)NCCCC[C@@H]1NC(=O)[C@H](C(C)(C)O)NC(=O)[C@H](CC2CCCCC2)NC(=O)[C@H](CCN)NC(=O)[C@@H](CC(C)C)NC(=O)[C@H](C)N(C)C(=O)[C@H](CCC(N)=O)NC(=O)[C@H](Cc2ccc(-c3ccccc3)cc2)NC(=O)[C@H](Cc2ccc(OCC(=O)O)cc2)NC(=O)[C@H](Cc2cccc(C(F)(F)F)c2)NC(=O)[C@H](CC(=O)O)NC(=O)[C@H](Cc2ccc(OCC(=O)O)cc2)NC(=O)[C@H](Cc2ccc(C(F)(F)F)cc2)NC(=O)CSC[C@@H](C(=O)N[C@@H](CCN)C(=O)NCCCCCCCCCCCCC(=O)O)NC1=O` [Example 2622] ({CH2CO}-[Phe(4-CF3)]Y(Carboxymethyl)D[Phe(3-CF3)]Y(Carboxymethyl)[Bip]Q[NMeA][dL][Dab][Cha][Val(3-OH)]K(Ac)C[Dab]-{NH(CH2)12COOH}; thioether N-14) in this work.
An IC50 of 99.4 nM was found for `CC(=O)NCCCC[C@@H]1NC(=O)[C@H](C(C)(C)O)NC(=O)[C@H](CC2CCCCC2)NC(=O)[C@H](CCN)NC(=O)[C@@H](CC(C)C)NC(=O)[C@H](C)N(C)C(=O)[C@H](CCCNC(N)=O)NC(=O)[C@H](Cc2ccc(-c3ccccc3)cc2)NC(=O)[C@H](Cc2ccc(OCC(=O)O)cc2)NC(=O)[C@H](Cc2cccc(C(F)(F)F)c2)NC(=O)[C@H](CC(=O)O)NC(=O)[C@H](Cc2ccc(OCC(=O)O)cc2)NC(=O)[C@H](CCN)NC(=O)CSC[C@@H](C(=O)N[C@@H](CCN)C(=O)NCCCCCCCCCCCCCCC(=O)O)NC1=O` [Example 2623] ({CH2CO}-[Dab]Y(Carboxymethyl)D[Phe(3-CF3)]Y(Carboxymethyl)[Bip][Cit][NMeA][dL][Dab][Cha][Val(3-OH)]K(Ac)C[Dab]-{NH(CH2)14COOH}; thioether N-14) in this work.
An IC50 of 77 nM was found for `CC(=O)NCCCC[C@@H]1NC(=O)[C@H](C(C)(C)O)NC(=O)[C@H](CC2CCCCC2)NC(=O)[C@H](CCN)NC(=O)[C@@H](CC(C)C)NC(=O)[C@H](C)N(C)C(=O)[C@H](CCCNC(N)=O)NC(=O)[C@H](Cc2ccc(-c3ccccc3)cc2)NC(=O)[C@H](Cc2ccc(OCC(=O)O)cc2)NC(=O)[C@H](Cc2cccc(C(F)(F)F)c2)NC(=O)[C@H](CC(=O)O)NC(=O)[C@H](Cc2ccc(OCC(=O)O)cc2)NC(=O)[C@H](Cc2ccc(OCC(=O)O)cc2)NC(=O)CSC[C@@H](C(=O)N[C@@H](CCN)C(=O)NCCCCCCCCCCCCCCC(=O)O)NC1=O` [Example 2624] ({CH2CO}-Y(Carboxymethyl)Y(Carboxymethyl)D[Phe(3-CF3)]Y(Carboxymethyl)[Bip][Cit][NMeA][dL][Dab][Cha][Val(3-OH)]K(Ac)C[Dab]-{NH(CH2)14COOH}; thioether N-14) in this work.
An IC50 of 190 nM was found for `CC(C)C[C@H]1NC(=O)[C@H](C)N(C)C(=O)[C@H](CCCNC(N)=O)NC(=O)[C@H](Cc2ccc(-c3ccccc3)cc2)NC(=O)[C@H](Cc2ccc(OCC(=O)O)cc2)NC(=O)[C@H](Cc2cccc(C(F)(F)F)c2)NC(=O)[C@H](CC(=O)O)NC(=O)[C@H](Cc2ccc(OCC(=O)O)cc2)NC(=O)[C@H](Cc2ccc(OCC(=O)O)cc2)NC(=O)CSC[C@@H](C(=O)N[C@@H](CCN)C(=O)NCCCCCCCCCCCCCCC(=O)O)NC(=O)[C@H](CCC(=O)O)NC(=O)[C@H](C(C)(C)O)NC(=O)[C@H](CC2CCCCC2)NC(=O)[C@H](CCN)NC1=O` [Example 2625] ({CH2CO}-Y(Carboxymethyl)Y(Carboxymethyl)D[Phe(3-CF3)]Y(Carboxymethyl)[Bip][Cit][NMeA][dL][Dab][Cha][Val(3-OH)]EC[Dab]-{NH(CH2)14COOH}; thioether N-14) in this work.
